Reference: the OPERA property sets (Mansouri et al. 2018)

Details: for log10 BCF / log10 biotransformation half-life (days): fish

| SMILES | boiling point [°C] | melting point [°C] | other results |
| --- | --- | --- | --- |
| CN(C)CCC#N | 173 | – | – |
| CC12CC3CC(C)(C1)CC(N)(C3)C2 | – | 258 | – |
| CCCCCCCCCCCCCCCCCC(=O)OCCCC | 343 | 27 | – |
| FC(F)(F)C1(F)C(F)(F)C(F)(C(F)(F)F)C(F)(F)C(F)(C(F)(F)F)C1(F)F (centres undefined) | 125 | – | – |
| Cc1nc2ccc([N+](=O)[O-])cc2[nH]1 | – | 224 | – |
| CC(C)C(=O)C(=O)O | 170 | 31.5 | – |
| CCOC(=O)CCC(C)=O | 206 | – | log10 vapour pressure (mmHg): -0.682 |
| Cc1ccc2c(c1)C(=O)c1ccccc1C2=O | – | 177 | – |
| Cn1cccc1 | 115 | – | log10 vapour pressure (mmHg): 1.33; ready biodegradability: readily biodegradable |
| FC(F)(F)C(F)(F)C(F)(F)C(F)(F)C(F)(F)C(F)(F)Br | 98 | – | – |
| O=C(O)c1c(Cl)c(Cl)c(Cl)c(Cl)c1Cl | – | 209 | – |
| COc1cc2c(c3oc(=O)c4c(c13)CCC4=O)[C@@H]1CCO[C@@H]1O2 | – | 288 | – |
| O=C(Nc1ccccc1)C(=O)Nc1ccccc1 | – | 254 | – |
| CCC(C)[N+](=O)[O-] (centres undefined) | 140 | – | log10 vapour pressure (mmHg): 0.891 |
| CCCCCCCCC(Br)CBr (centres undefined) | – | 28 | log10 vapour pressure (mmHg): -2.43 |
| CC1=C[C@H]2O[C@@H]3[C@H](O)C[C@](C)([C@@]2(CO)[C@H](O)C1=O)[C@]31CO1 | – | 152 | – |
| Nc1ccc(N)c(N)c1 | 340 | 97.3 | – |
| c1ccc(Oc2nc(Oc3ccccc3)nc(Oc3ccccc3)n2)cc1 | – | 234 | – |
| N#CC(Cl)Cl | 112 | – | – |
| N#Cc1c2ccccc2cc2ccccc12 | – | 175 | – |
| C=C(C)C(C)(C)CC | 108 | -69 | log10 vapour pressure (mmHg): 1.48 |
| COc1ccc(N(CCCC(=O)O)C(=O)c2ccc(Cl)cc2)cc1 | – | 116 | – |

| SMILES | boiling point [°C] | melting point [°C] | other results |
| --- | --- | --- | --- |
| NC(=O)c1ncccc1O | – | 195 | – |
| C#CC(C)(C)NC(=O)c1ccc(F)cc1 | – | – | log10 Koc (L/kg): 1.68 |
| Nc1cccc2cccc(S(=O)(=O)O)c12 | – | – | ready biodegradability: not readily biodegradable |
| CP(C)C | 37.5 | -85 | – |
| CC(=O)Oc1cccc(C)c1 | 212 | 12 | – |
| C(=Nc1ccccc1)c1ccccc1 | 310 | 54 | – |
| CCCCCCCCCCCCF | – | – | log10 vapour pressure (mmHg): -0.682 |
| O=C(Cl)C1CCCCC1 | 180 | – | – |
| CCCCCCCCCl | 182 | -57.8 | log10 vapour pressure (mmHg): -0.0223; ready biodegradability: readily biodegradable |
| CCCCCc1ccc(C)cc1O | – | 24 | – |
| O=C(NCCO[N+](=O)[O-])c1cccnc1 | – | 92.5 | – |
| CCc1ccco1 | 92 | – | – |
| CC(O)CC(C)O (centres undefined) | 199 | – | ready biodegradability: readily biodegradable |
| O=[N+]([O-])c1ccc2c(c1)CCN2 | – | 93 | – |
| N#CC(CCc1ccc(Cl)cc1)(Cn1cncn1)c1ccccc1 (centres undefined) | – | 125 | log10 vapour pressure (mmHg): -7.43 |
| COc1ccc(C(C)=O)c(OC)c1OC | 296 | 15.8 | – |
| C=CCCCCC(=O)O | 226 | -6.5 | – |
| CCC(=O)O[C@H]1CC[C@H]2[C@@H]3CCC4=CC(=O)CC[C@]4(C)[C@H]3CC[C@]12C | – | 120 | – |
| C=CC(C)(CCC=C(C)C)OC(C)=O (centres undefined) | 220 | – | log10 vapour pressure (mmHg): -0.955 |
| Clc1ccc2ccc(Cl)c(Cl)c2c1 | – | – | log10 Koa: 7.5 |
| CCCCC#N | 141 | -96.2 | log10 Koa: 3.6; log10 vapour pressure (mmHg): 0.863 |
| NC1CCCC1 | 108 | -82.7 | – |

| SMILES | boiling point [°C] | melting point [°C] | other results |
| --- | --- | --- | --- |
| C[C@@H]1C[C@H]2[C@@H]3C[C@H](F)C4=CC(=O)C=C[C@]4(C)[C@H]3[C@@H](O)C[C@]2(C)[C@H]1C(=O)CO | – | 188 | – |
| O=C(O)c1ccc2c(c1)C(=O)c1ccccc1-2 | – | 341 | – |
| c1cc[n+]2c(c1)-c1cccc[n+]1CC2 | – | – | log10 Koc (L/kg): 2.7; log10 vapour pressure (mmHg): -8; log10 BCF: 0.76 |
| O=[N+]([O-])C(Br)(Br)Br | – | 10 | – |
| CC(C)c1cccc(C(C)C)c1 | 203 | -63.1 | log10 vapour pressure (mmHg): -0.406; log10 BCF: 3.28; log10 biotransformation half-life (days): 0.56 |
| Nc1ccc(F)c([N+](=O)[O-])c1 | – | 97.5 | – |
| CCOC(=O)Cc1cccc2ccccc12 | – | 88.5 | log10 Koc (L/kg): 2.48 |
| OCCCBr | – | – | log10 vapour pressure (mmHg): -1 |
| CC(C)(C)c1cccc2ccccc12 | 279 | -11.3 | – |
| OCC(CO)(CO)CBr | – | 76 | – |
| CCOC(OCC)OCC | 143 | – | log10 vapour pressure (mmHg): 0.587 |
| O=C(O)COc1ccc(Cl)c(Cl)c1 | – | 139 | – |
| COc1ccc(C(C)=O)cc1 | 258 | 38.5 | log10 vapour pressure (mmHg): -2.19 |
| c1ccc(OCc2ccc(CCCN3CCOCC3)cc2)cc1 | – | 52.5 | – |
| COc1ccc(C=O)cc1O | – | 114 | – |
| Cc1cc(Cl)ccc1[N+](=O)[O-] | – | 25.5 | – |
| CCN(CC)CC(=O)OCC(=O)[C@@]1(O)CC[C@H]2[C@@H]3CCC4=CC(=O)CC[C@]4(C)[C@H]3[C@@H](O)C[C@@]21C | – | 162 | – |
| C=COC(=O)C(C)C | 104 | – | – |
| CCCCC(C(N)=O)n1nc2ccccc2n1 (centres undefined) | – | 102 | – |
| C[C@@](Cc1ccc(O)c(O)c1)(NN)C(=O)O | – | 208 | – |
| CC(=O)c1cccc([N+](=O)[O-])c1 | 202 | 81 | – |
| CCCN(CCCl)c1c([N+](=O)[O-])cc(C(F)(F)F)cc1[N+](=O)[O-] | – | 42 | log10 Koc (L/kg): 3.55; log10 vapour pressure (mmHg): -4.52 |

| SMILES | boiling point [°C] | melting point [°C] | other results |
| --- | --- | --- | --- |
| O=C(c1ccccc1)C(Cl)Cl | 249 | 20.5 | – |
| O=C(O)C(F)(F)C(F)(F)C(F)(F)C(F)(F)C(F)(F)C(F)(F)F | 177 | – | log10 vapour pressure (mmHg): -0.876 |
| CC(=O)O[C@]1(C(C)=O)CC[C@H]2[C@@H]3C[C@H](C(F)(F)F)C4=CC(=O)CC[C@]4(C)[C@H]3CC[C@@]21C | – | 206 | – |
| OCc1cccc2ccccc12 | 304 | 64 | log10 Koc (L/kg): 2.17 |
| CCOC(=O)CCc1ccccc1 | 247 | – | – |
| CCCCc1cc2c(=O)c(C(=O)OC)c[nH]c2cc1OCc1ccccc1 | – | 288 | – |
| CN(C)c1cccc(N)c1 | 270 | – | – |
| Clc1ccc(-c2c(Cl)c(Cl)c(Cl)c(Cl)c2Cl)c(Cl)c1 | – | – | log10 Koa: 10.5 |
| ClC(Cl)(Cl)c1ccccc1 | 221 | -5 | log10 vapour pressure (mmHg): -0.383; ready biodegradability: readily biodegradable |
| CC1COC(=O)O1 (centres undefined) | 242 | -48.8 | log10 vapour pressure (mmHg): -1.35; ready biodegradability: readily biodegradable |
| c1ccc(CNCc2ccccc2)cc1 | – | -26 | log10 vapour pressure (mmHg): -3.1 |
| CC1CNCC(C)O1 (centres undefined) | 147 | -88 | – |
| Clc1ccc(Oc2cccc(Cl)c2Cl)cc1 | – | – | log10 vapour pressure (mmHg): -3.94 |
| Cc1cc(O)c2ccccc2c1O | – | 169 | – |
| Cc1ccc(-c2ccc(C)c(C)c2)cc1C | – | – | log10 biotransformation half-life (days): -0.01 |
| CCOC(=O)c1ccc(F)cc1 | 210 | 26 | – |
| CC(=O)Oc1ccc(-c2ccccc2)cc1 | – | 89 | – |
| O=c1oc2ccccc2c(O)c1C(CC(O)c1ccc(Cl)cc1)c1ccc(Cl)s1 (centres undefined) | – | 104 | – |
| CC(=O)C(=O)c1ccccc1 | 222 | – | – |
| CC(C)(Oc1ccccc1)C(=O)O | – | 98.5 | – |
| Cl.Cl.O=C1c2c(O)ccc(O)c2C(=O)c2c(NCCNCCO)ccc(NCCNCCO)c21 | – | 204 | – |
